{"source": "patent US7943606B2", "about": "“Compositions and methods to control abnormal cell growth” (CanCure Laboratories, LLC, priority 2005, dated 2011)", "molecules": {"B1": {"name": "PALP: human placental alkaline phosphatase, highly purified from commercial (Sigma-Aldrich) PALP (protein, UniProt P05187 23-506, looked up)", "Alkaline phosphatase, …": "IIPVEEENPDFWNREAAEALGAAKKLQPAQTAAKNLIIFLGDGMGVSTVTAARILKGQKKDKLGPEIPLAMDRFPYVALSKTYNVDKHVPDSGATATAYLCGVKGNFQTIGLSAAARFNQCNTTRGNEVISVMNRAKKAGKSVGVVTTTRVQHASPAGTYAHTVNRNWYSDADVPASARQEGCQDIATQLISNMDIDVILGGGRKYMFRMGTPDPEYPDDYSQGGTRLDGKNLVQEWLAKRQGARYVWNRTELMQASLDPSVTHLMGLFEPGDMKYEIHRDSTLDPSLMEMTEAALRLLSRNPRGFFLFVEGGRIDHGHHESRAYRALTETIMFDDAIERAGQLTSEEDTLSLVTADHSHVFSFGGYPLRGSSIFGLAPGKARDRKAYTVLLYGNGPGYVLKDGARPDVTESESGSPEYRQQSAVPLDEETHAGEDVAVFARGPQAHLVHGVQEQTFIAHVMAFAACLEPYTACDLAPPAGTTD"}}, "key": {"NIH 3T3 cells": {"test_system": "NIH 3T3 cells", "experiment": "Viability of NIH 3T3 normal fibroblasts (MTT assay)", "format": "cell-based", "settings": "0-200 μM, 72 hours, MTT", "description": "(§1) To quantify cell death, around the time when significant and characteristic morphological changes took place, cells were pulse-labeled for 10 minutes with [^3H]thymidine to measure DNA activity as described elsewhere [Tomono, M. and Kiss, Z. (1995), “Ethanol enhances the stimulatory effects of insulin and insulin-like growth factor-I on DNA synthesis in NIH 3T3 fibroblasts,” Biochem. Biophys. Res. Commun. 208, 63-67]. Also, cells were collected as suspensions using trypsin, an established method in cell biology, followed by re-plating of cells in fresh tissue culture medium. If no viable cells were obtained after one week in culture, it meant that the cells at the time of re-plating were dead. Survival values obtained with untreated cells were considered 100%. For the determination of relative number of viable cells after treatments, in most cases the MTT assay was used. This calorimetric assay is based on the ability of living cells, but not dead cells, to reduce 3-(4,5-dimethyl thiazol-2-yl)-2,5-diphenyltetrazolium bromide [Carmichael, J, De Graff, W. G., Gazdar, A. F., Minna, J. D. and Mitchell, J. B. (1987), “Evaluation of tetrazolium-based semi-automated calorimetric assay: Assessment of chemosensitivity testing,” Cancer Res. 47, 936-942]. For this assay, cells were plated in 96-well plates, and the MTT assay was performed both in untreated and treated cell cultures. The MTT assay also was performed at the start of treatments to allow assessment of proliferation rates in the control and treated cell cultures.\n(§2) The NIH 3T3 (normal) mouse fibroblast, A431 human epidermoid adenocarcinoma, and MCF-7 human breast cancer cells were cultured in DMEM medium containing 10% FBS. The MEL-28 human melanoma cells were cultured in MEM medium containing 10% FBS. The HT-29 human colon adenocarcinoma cells were cultured in McCoy's 5a medium containing 10% FBS. The A549 human lung carcinoma cells were maintained in Ham's F12K medium containing 10% FBS. Cells were seeded into 96-well plates and treated at ˜70-90% confluency. Two hours before treatments the medium was changed for fresh 10% serum medium, and then the cells were incubated for 72 hours in the presence of 0-200 μM of CCompound1 (●) or CCompound3 (CCDTHT) (▴), as indicated. The MTT assay was used to determine cell viability after treatments. The values, shown in FIGS. 5A-5F and expressed as percent decrease in viability compared to the untreated control cells, are the mean±std. dev. of 8 incubations in one experiment. Similar results were obtained in another experiment.\n(§3) NIH3T3, T47D, A-431, HT-29, and MEL-28 cells were cultured as indicated earlier. CaOV-3 human ovarian cancer cells were cultured in DMEM containing 10% FBS. ZR-75-1 human estrogen receptor-positive breast cancer cells were maintained in RPMI 1640 medium supplemented with 10% FBS. HTB-157 human fetal fibroblasts, MEL-24 human malignant melanoma cells, Hep G2 human hepatoblastoma cells, and CaCO-2 human colon adenocarcinoma cells were maintained in Eagles's MEM containing 10% FBS. MB-231 human estrogen receptor-negative breast cancer cells were maintained in Leibovitz's L-15 medium supplemented with 10% FBS. Cells were seeded into 96-well plates and treated at ˜70-90% confluency. Two hours prior to treatments the medium was changed for fresh 10% serum medium, and then the cells were incubated for 10 days in the absence (□) or presence of 50 μM CCDTHT ? or 100 μM CCDTHT (▪). The medium was changed and the cells were re-treated on days 3 and 6. The MTT assay was used to determine cell viability on day 10. The data, shown in FIG. 6, are the mean±std. dev. of 8 incubations in one experiment. (The experiment was repeated twice with similar results).\n(§4) NIH 3T3, MEL-28, MEL-24, CaOV-3, ZR-75-1, and T47D cells were cultured as described above. The OVCAR human ovarian cancer cells were cultured in DMEM containing 10% FBS. Cells were seeded into 96-well plates and used at ˜60-80% confluency. […]"}, "MCF-7 cells": {"test_system": "MCF-7 cells", "experiment": "Viability of MCF-7 breast cancer cells", "format": "cell-based, human", "settings": "0-200 μM, 72 hours, MTT", "description": "as §1\nAbout 50% confluent cultures of MCF-7 cells, cultured in 12-well plates in Dulbecco's modified Eagle's medium (DMEM) supplemented with 10% FBS, were either untreated (FIG. 3A), or were treated with 100 μM CCDTHT (CCompound3) for 72 hours (FIG. 3B). […] This experiment was repeated three times with similar results. In some experiments, cells from the CCDTHT-treated cultures were seeded into 96-well plates, and the MTT assay was performed 96 hours later to test for viable cells.\nas §2\nNIH 3T3, AN3CA, HT-29, MEL-28, and MCF-7 cells were cultured as described earlier. Cells were seeded into 96-well plates; when cells were ˜80-90% confluent, the medium was changed for fresh 10% serum-containing medium, followed by incubations for 72 hours in the absence (□) or presence of 100 μM CCDTHT ? , 2 mM ethanolamine (Etn) ? , or 100 μM CCDTHT+2 mM Etn (▪). The MTT assay was used to determine cell viability. […]"}, "A-431 cells": {"test_system": "A-431 cells", "experiment": "Viability of A-431 epidermoid adenocarcinoma cells (MTT assay)", "format": "cell-based, human", "settings": "0-200 μM, 72 hours, MTT", "description": "as §1, §2, §3, §4"}, "[1]": {"experiment": "Toxicological studies in mice", "format": "in vivo, mouse", "settings": "200-500 μmole/animal", "description": "Accordingly, a well-tolerated dose for CCDTHT in mice is 450 μmole/animal (weighing about 25 g) which corresponds to a dose of 4.6 mg/kg. Therapeutically effective concentrations in humans will exert maximal inhibitory effects on the growth of non-healthy tissues without causing significant toxicity in normal healthy tissues.\nParallel toxicological studies also have been performed with 200-500 μmole/animal doses of the commercially available CCompound1. […] CCompound26, which may have an even better toxicity profile based on in vitro experiments with normal cells, was synthesized much later and has not yet been tested in animal experiments."}, "choline transport": {"test_system": "choline transport", "experiment": "[14C]choline uptake and metabolism in AN3CA, MCF-7 and MEL-28 cancer cells", "format": "cell-based, human", "description": "MEL-28 and MCF-7 cells were cultured in MEM medium supplemented with 10% fetal bovine serum (FBS) and in DMEM medium supplemented with 10% FBS, respectively. The AN3CA human endometrial adenocarcinoma cells were maintained in Eagle's MEM containing 10% FBS. Cancer cells were grown up to confluency in 12-well plates in 10% fetal-bovine serum-containing medium, then incubated in the presence of 1 μCi of [methyl-^14C]choline (bought from Amersham; Piscataway, N.J.) for 2 hours. Cells were first rapidly (within 30 seconds) washed three times with 4 ml of serum-free medium, then extracted with ice-cold methanol. This was followed by the determination of cellular free radiolabeled choline and phosphocholine (PCho) by column chromatography as described earlier [Kiss, Z. and Crilly, K. S. (1995), “Tamoxifen inhibits uptake and metabolism of ethanolamine and choline in multidrug-resistant, but not in drug-sensitive, MCF-7 human breast carcinoma cells,” FEBS Lett. 360, 165-168], and the separation and determination of radiolabeled phosphatidylcholine (PtdCho) by thin layer chromatography as indicated in Kiss [Kiss, Z. (1996), “Direct proof that phorbol ester accelerates the use of choline phosphate for phosphatidylcholine synthesis in intact cells,” Arch. Biochem. Biophys. 335, 191-196].\nMCF-7 and MEL-28 cells were cultured as described earlier. The AN3CA human endometrial adenocarcinoma cells were maintained in Eagle's MEM containing 10% FBS. Each cell type was grown in 12-well plates to confluency and then incubated with 1 μCi of [methyl-^14C]choline for 2 hours in the absence (□) or presence of 100 μM CCDTHT ? or 0.5 mM HC-3 (▪), followed by the determination of cellular contents of radiolabeled choline (A), PCho (B) and PtdCho (C), as indicated in FIG. 9. […] Thus, if both CCDTHT and HC-3 influenced cell viability solely via inhibition of choline metabolism, then these agents should similarly affect cell viability, at least at the concentrations used in the choline transport experiment."}, "[2]": {"settings": "cited from earlier work"}}}
{"molecule": "Cc1c(OCC(O)C[N+](C)(C)C)cc2c(=O)c3ccccc3sc2c1C.[Cl-]", "note": "(stereo not shown) [CCcompound1, [3-(3,4-Dimethyl-9-oxo-9H-thioxanthen-2-yloxy)-2-hydroxypropyl]trimethyl-ammonium chloride, reference compound]", "values": [{"measurement": "toxic effects in NIH 3T3 (normal) fibroblast cultures", "setting": "NIH 3T3 cells", "result": "none of these compounds exerted major toxic effects"}, {"measurement": "decrease in viability, MCF-7", "setting": "MCF-7 cells", "result": "similarly large effects"}, {"measurement": "decrease in viability, A-431", "setting": "A-431 cells", "result": "similarly large effects"}, {"measurement": "tolerability", "setting": "[1]", "result": "similarly well tolerated"}]}
{"molecule": "C[N+]1(C)CCOC(O)(c2ccc(-c3ccc(C4(O)C[N+](C)(C)CCO4)cc3)cc2)C1.[Br-].[Br-]", "note": "(stereo not shown) [HC-3]", "values": [{"measurement": "inhibitory effects on choline uptake and metabolism (choline, PCho, PtdCho)", "setting": "choline transport; 100 μM CCDTHT or 0.5 mM HC-3, 2 hours, each cell line", "result": "comparably strong inhibitory effects"}, {"measurement": "inhibition of choline transport", "setting": "choline transport; 0.1 mM", "result": "20-25%"}]}
{"molecule": "B1", "values": [{"measurement": "half-life time", "setting": "[2]", "result": "120 to 140", "unit": "h"}]}
